Reference: ChEMBL document CHEMBL6121019, “Design, synthesis and biological evaluation of bisnoralcohol derivatives as novel IRF4 inhibitors for the treatment of multiple myeloma” (Eur J Med Chem, 2025)
Activity calls are given as the source filed them. No cut-off for these calls is given here.

How the values were obtained:
NCI-H929 [1] = assay: Antitumor activity against human NCI-H929 cells xenografted in Balb/C nude mouse model assessed as inhibition of inhibition of cyclin D1 expression at 25 mg/kg by Western blot analysis; assay type: functional, organism-based
NCI-H929 [2] = assay: Induction of cell cycle arrest in human NCI-H929 cells assessed as inhibition of CMYC protein expression at 0.1 to 1 uM; assay type: functional, cell-based; conditions: dose 0.1-1 µM
[3] = Cmax in ICR mouse plasma at 10 mg/kg, po; assay type: ADME, organism-based
NCI-H929 [4] = assay: Antitumor activity against human NCI-H929 cells xenografted in Balb/C nude mouse model assessed as increase in gammaH2AX expression at 25 mg/kg by Western blot analysis; assay type: functional, organism-based
[5] = Oral bioavailability in ICR mouse plasma at 10 mg/kg; assay type: ADME, organism-based
MM.1R [6] = assay: Effect on IRF4 expression in human MM1.R cells with siRNA mediated IRF4 knockdown by Western blot analysis; assay type: functional, cell-based
[7] = Antiproliferative activity against human HaCaT cells assessed as inhibition of cell viability measured after 72 hrs by MTS assay; assay type: toxicity, cell-based
[8] = Potency index, ratio of IC50 for lenalidomide to test compound IC50 for antiproliferative activity against human MM1.R cells assessed as inhibition of cell growth measured after 72 hrs by MTS assay; assay type: functional
NCI-H929 [9] = assay: Antiproliferative activity against human NCI-H929 cells assessed as inhibition of 3D clone forming ability measured after 2 to 3 weeks; assay type: functional, cell-based; conditions: dose 0.125-1 µM, time 2-3 weeks
NCI-H929 [10] = assay: Antitumor activity against human NCI-H929 cells xenografted in Balb/C nude mouse model assessed as inhibition of tumor volume measured after 34 days; assay type: functional; conditions: dose 12.5-25 mg/kg, time 34.0 day
NCI-H929 [11] = assay: Effect on IRF4 expression in human NCI-H929 cells by Western blot analysis; assay type: functional, cell-based
MM.1R [12] = assay: Downregulation of Blimp1 expression in human MM1.R cells measured after 24 hrs by qRT-PCR analysis; assay type: functional, cell-based; conditions: dose 0.125-1 µM
[13] = AUC (0 to t) in ICR mouse plasma at 10 mg/kg, po; assay type: ADME, organism-based
NCI-H929 [14] = assay: Downregulation of Blimp1 expression in human NCI-H929 cells measured after 24 hrs by qRT-PCR analysis; assay type: functional, cell-based; conditions: dose 0.125-1 µM
RPMI-8226 = assay: Antiproliferative activity against human RPMI-8226 cells assessed as inhibition of cell viability measured after 72 hrs by MTS assay; assay type: functional, cell-based; conditions: RPMI-8226, 72 h
MM.1R [15] = assay: Downregulation of CCNC expression in human MM1.R cells measured after 24 hrs by qRT-PCR analysis; assay type: functional, cell-based; conditions: dose 0.125-1 µM
MM.1R [16] = assay: Downregulation of HK2 expression in human MM1.R cells measured after 24 hrs by qRT-PCR analysis; assay type: functional, cell-based; conditions: dose 0.125-1 µM
NCI-H929 [17] = assay: Induction of DNA damage in human NCI-H929 cells assessed as increase in gammaH2AX expression at 0.1 to 1 uM by Western blot analysis; assay type: functional, cell-based; conditions: dose 0.1-1 µM
MM.1R [18] = assay: Downregulation of CANX expression in human MM1.R cells measured after 24 hrs by qRT-PCR analysis; assay type: functional, cell-based; conditions: dose 0.125-1 µM
MM.1R [19] = assay: Induction of cell cycle arrest in human MM1.R cells assessed as inhibition of cyclin D1 protein expression at 0.1 to 1 uM; assay type: functional, cell-based; conditions: dose 0.1-1 µM
MM.1R [20] = assay: Antiproliferative activity against human MM1.R cells with siRNA mediated IRF4#1 knockdown at 0.125 to 1 uM measured upto 5 days by MTS assay; assay type: functional, cell-based; conditions: dose 0.125-1 µM, time <= 5.0 day
[21] = Terminal elimination half life in ICR mouse plasma at 1.0 mg/kg, iv; assay type: ADME, organism-based; conditions: read-out: beta t1/2 (converted)
NCI-H929 [22] = assay: Downregulation of HK2 expression in human NCI-H929 cells measured after 24 hrs by qRT-PCR analysis; assay type: functional, cell-based; conditions: dose 0.125-1 µM
MM.1R [23] = assay: Induction of DNA damage in human MM1.R cells assessed as increase in gammaH2AX expression at 0.1 to 1 uM by Western blot analysis; assay type: functional, cell-based; conditions: dose 0.1-1 µM
NCI-H929 [24] = assay: Downregulation of CANX expression in human NCI-H929 cells measured after 24 hrs by qRT-PCR analysis; assay type: functional, cell-based; conditions: dose 0.125-1 µM
MM.1R [25] = assay: Antiproliferative activity against human MM1.R cells assessed as inhibition of 3D clone forming ability measured after 2 to 3 weeks; assay type: functional, cell-based; conditions: dose 0.125-1 µM, time 2-3 weeks
[26] = Potency index, ratio of IC50 for lenalidomide to test compound IC50 for antiproliferative activity against human NCI-H929 cells assessed as inhibition of cell growth measured after 72 hrs by MTS assay; assay type: functional
[27] = Antiproliferative activity against human MM1.R cells assessed as inhibition of cell viability measured after 72 hrs by MTS assay; assay type: functional, cell-based; conditions: MM.1R
NCI-H929 [28] = assay: Antiproliferative activity against human NCI-H929 cells with siRNA mediated IRF4#2 knockdown at 0.125 to 1 uM measured upto 5 days by MTS assay; assay type: functional, cell-based; conditions: dose 0.125-1 µM, time <= 5.0 day
NCI-H929 [29] = assay: Induction of cell cycle arrest in human NCI-H929 cells assessed as accumulation of cells at S phase at 0.5 uM measured after 24 hrs by flow cytometry analysis (reference value: 32.14%); assay type: functional
NCI-H929 [30] = assay: Antiproliferative activity against human NCI-H929 cells with siRNA mediated IRF4#1 knockdown at 0.125 to 1 uM measured upto 5 days by MTS assay; assay type: functional, cell-based; conditions: dose 0.125-1 µM, time <= 5.0 day
NCI-H929 [31] = assay: Antitumor activity against human NCI-H929 cells xenografted in Balb/C nude mouse model assessed as inhibition of […] expression at 25 mg/kg by Western blot analysis; assay type: functional, organism-based
NCI-H929 [32] = assay: Induction of cell cycle arrest in human NCI-H929 cells assessed as accumulation of cells at S phase at 0.125 uM measured after 24 hrs by flow cytometry analysis (reference value: 32.14%); assay type: functional
MM.1R [33] = assay: Downregulation of E2F5 expression in human MM1.R cells measured after 24 hrs by qRT-PCR analysis; assay type: functional, cell-based; conditions: dose 0.125-1 µM
NCI-H929 [34] = assay: Downregulation of CMYC expression in human NCI-H929 cells measured after 24 hrs by qRT-PCR analysis; assay type: functional, cell-based; conditions: dose 0.125-1 µM
NCI-H929 [35] = assay: Induction of cell cycle arrest in human NCI-H929 cells assessed as accumulation of cells at G1 phase at 0..5 uM measured after 24 hrs by flow cytometry analysis (reference value: 54.12%); assay type: functional
[36] = Tmax in ICR mouse plasma at 1.0 mg/kg, iv; assay type: ADME, organism-based
[37] = Toxicity in Balb/C nude mouse assessed as change in body weight at 12.5 to 25 mg/kg administered once daily and measured every three days for 34 days; assay type: organism-based; conditions: in vivo, 816 h, dose 12.5-25 mg/kg, time 34 day
MM.1R [38] = assay: Effect on IRF4 expression in human MM1.R cells by Western blot analysis; assay type: functional, cell-based
[39] = Selectivity ratio IC50 for human RPMI-8226 cells to IC50 for human NCI-H929 cells; assay type: toxicity
NCI-H929 [40] = assay: Induction of cell cycle arrest in human NCI-H929 cells assessed as inhibition of cyclin E1 protein expression at 0.1 to 1 uM; assay type: functional, cell-based; conditions: dose 0.1-1 µM
NCI-H929 [41] = assay: Antitumor activity against human NCI-H929 cells xenografted in Balb/C nude mouse model assessed as inhibition of ERK phosphorylation level at 25 mg/kg by Western blot analysis; assay type: functional, organism-based
NCI-H929 [42] = assay: Induction of cell cycle arrest in human NCI-H929 cells assessed as accumulation of cells at G2 phase at 0.25 uM measured after 24 hrs by flow cytometry analysis (reference value: 13.37%); assay type: functional

In the case of COc1ccc(NC(=O)[C@@H](C)[C@H]2CC[C@H]3[C@@H]4C(=O)C=C5C(C)(C)C(=O)C(C#N)=C[C@]5(C)[C@H]4CC[C@]23C)cc1, the Activity (NCI-H929 [1]) is reported as “Active”, the Activity (NCI-H929 [2]) is reported as “Active” and the Cmax [3] is reported as 82 ng/mL. The Activity (NCI-H929 [4]) was “Active”, the bioavailability [5] was 53.9% and the Activity (MM.1R [6]) was “Active”. For the same compound, the IC50 at 72 h [7] was greater than 100000 nM, the “Ratio IC50” value [8] was 30 and the Activity (NCI-H929 [9]) was “Dose-dependent-effect”. For the same compound, the Activity (NCI-H929 [10]) was “Active; More Effective Than Lenalidomide”, the Activity (NCI-H929 [11]) was “Active” and the Activity (MM.1R [12]) was “Active”. For the same compound, the AUC(0-t) [13] was 285 ng·h/mL, the Activity (NCI-H929 [14]) was “Active” and the IC50 (RPMI-8226) was 1190 nM. For the same compound, the Activity (MM.1R [15]) was “Active”, the Activity (MM.1R [16]) was “Active” and the Activity (NCI-H929 [17]) was “Active”. For the same compound, the Activity (MM.1R [18]) was “Active”, the Activity (MM.1R [19]) was “Active” and the Activity (MM.1R [20]) was “Active”. For the same compound, the half-life [21] was 75 min, the Activity (NCI-H929 [22]) was “Active” and the Activity (MM.1R [23]) was “Active”. The Activity (NCI-H929 [24]) was “Active”, the Activity (MM.1R [25]) was “Dose-dependent-effect” and the “Ratio IC50” value [26] was 30. The IC50 [27] was 110 nM, the Activity (NCI-H929 [28]) was “Active” and the Activity (NCI-H929 [29]) was 20.54%. For the same compound, the Activity (NCI-H929 [30]) was “Active”, the Activity (NCI-H929 [31]) was “Active” and the Activity (NCI-H929 [32]) was 30.67%. For the same compound, the Activity (MM.1R [33]) was “Active”, the Activity (NCI-H929 [34]) was “Active” and the Activity (NCI-H929 [35]) was 64.61%. For the same compound, the Tmax [36] was 4.8 min, the Activity [37] was “Non-toxic” and the Activity (MM.1R [38]) was “Active”. The “Ratio IC50” value [39] was 14.9, the Activity (NCI-H929 [40]) was “Active” and the Activity (NCI-H929 [41]) was “Active”. It also gave an Activity (NCI-H929 [42]) of 14.14%.
